From patent US10766914B2, “DNA alkylating agents” (OBI PHARMA, INC., priority 2015, dated 2020)
Like-named read-outs stand apart in the source and are kept apart here.

Tests used:
H460 cells = experiment: Proliferation assay in H460 cells (2 hr exposure, AlamarBlue); type: cell-based, human; conditions: Homo sapiens, NCI-H460, 2 hrs exposure, wash, 70 hrs growth, read-out: IC 50 in proliferation assay in H460 cells
In short: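 H460 cells seeded at 4×10^3/well, grown 24 h, then exposed to compound for 2 h at 37 °C. Drug was washed off and cells were regrown 70 h in fresh medium. Viable cells were read by AlamarBlue, and IC50 was taken as the concentration giving 50% growth inhibition.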

[1] = system: A 549 non-small cell lung xenograft; experiment: Example 4-B antitumor efficacy, ectopic A549 NSCLC xenograft model; type: in vivo, female nude mice (nu/nu); conditions: 10 mg/kg ip QD × 5/wk × 2 wks
Text: (§1) Specific pathogen-free homozygous female nude mice (nu/nu, Charles River Laboratories) were used. Mice were given food and water ad libitum and housed in microisolator cages. Four to six week old animals were identified by microchips (Locus Technology, Manchester, Md., USA) at the time of the experiments. All animal studies were approved by the Institutional Animal Care and Use Committee at Threshold Pharmaceuticals, Inc.
(§2) All cell lines were from the American Type Culture Collection (ATCC, Rockville, Md., USA).
(§3) Cells were mixed with Matrigel (50% with exception for 30% in the H460) and 0.2 ml per mouse were subcutaneously implanted to the flank area of the animals. When tumor size reached 100-150 250 mm3, mice were randomized into experimental or vehicle groups with 10 mice/group and treatment was started (Day 1). The tested compounds were formulated in 5% DMSO in D5W. The regimens employed in the examples include IP, QD×5/wk (5 days on, 2 days off) as one cycle, for a total of 2 cycles; IP, once; IP, weekly for total 3 weeks; and IV, weekly for 3 weeks. Tumor growth and body weight were measured twice a week. Tumor volume was calculated as (length×width2)/2. Drug efficacy was assessed as Tumor Growth Inhibition (TGI) and Tumor Growth Delay (TGD). TGI was defined as (1−ΔT/ΔC)×100, where ΔT/ΔC presented the ratio of the change in mean (or median, if variation within the group was relatively large) tumor volume of the treated group and of the control group. TGD was calculated as the extra days for the treated tumor to reach 500 mm3 or 1000 mm3 as compared to the control group. Animals were culled when individual tumor size reached over 2000 mm3 or mean tumor volume exceeded 1000 mm3 in the group. Data are expressed as the mean±SEM. One-way analysis of variance with Dunnett post comparison test (GraphPad Prism 4) or two-tailed student's t-test were used for analysis. A P level <0.05 was considered statistically significant.
The dosing was as follows. Daily IP dosing: 5 doses then 2 days off then 5 more doses starting at 110 mm^3 tumors on day 1 (10 animals per group average tumor volume).
Doses were selected by first doing a toxicity test in CD1 mice as described above. The compounds were tested against Thio-tepa.

[2] = Example 4-B body weight change, A549 xenograft study; type: in vivo, female nude mice (nu/nu); conditions: 10 mg/kg ip QD × 5/wk × 2 wks
Description: as §3
Antitumor effects of compounds provided herein were determined on A 549 non-small cell lung xenograft model in comparison with a chemotherapy agent, thiotepa. The dosing was as follows. Daily IP dosing: 5 doses then 2 days off then 5 more doses starting at 110 mm^3 tumors on day 1 (10 animals per group average tumor volume). The antitumor effects and the safety of administration are graphically illustrated below.

[3] = system: A375 melanoma human tumor xenograft; experiment: Example 4-C antitumor efficacy, ectopic A375 melanoma xenograft model; type: in vivo, female nude mice (nu/nu); conditions: qd × 5 × 2, ip
Text: as §1, §2, §3
his study employed an A375 melanoma human tumor xenograft model and various compounds provided herein were compared to thiotepa and the approved anti melanoma drug, nab-Paclitaxel.

[4] = Example 4-C body weight change, A375 xenograft study; type: in vivo, female nude mice (nu/nu); conditions: 10 mpk, qd × 5 × 2, ip
Description: as §3
his study employed an A375 melanoma human tumor xenograft model and various compounds provided herein were compared to thiotepa and the approved anti melanoma drug, nab-Paclitaxel. The antitumor effects and the safety of administration are graphically illustrated below.

[5] = Pharmacokinetics in CD-1 mice following a single intraperitoneal dose (parent and TH2660); conditions: mouse, in vivo, ip, parent compound
Description: The pharmacokinetics of TH2873, TH2883, TH2888, TH2890, TH2901 and TH2926 were determined in CD-1 mice following a single intraperitoneal dose.
The pharmacokinetics of TH2660, the active metabolite, following a single intraperitoneal dose of TH2873, TH2883, TH2888, TH2890, TH2901 and TH2926 are shown below.

A549 NSCLC xenograft = experiment: Example 4-D antitumor efficacy, ectopic A549 NSCLC xenograft model; type: in vivo, female nude mice (nu/nu); conditions: 40 mg/kg IP QD × 5/wk × 2 wks
Text: as §1, §2, §3
(§4) The compounds were tested in another A549 model. The compounds were dosed as follows. Daily IP dosing: 5 doses then 2 days off then 5 more doses starting at 100 mm^3 tumors on day 1 (10 animals per group average tumor volume). The antitumor effects and the safety of administration are graphically illustrated below.

[6] = Example 4-D body weight change and lethal toxicity, A549 xenograft study; type: in vivo, female nude mice (nu/nu); conditions: 40 mg/kg IP QD × 5/wk × 2 wks
Description: as §3, §4

H460 NSCLC xenograft = experiment: Example 4-F antitumor efficacy, ectopic H460 NSCLC xenograft model; type: in vivo, female nude mice (nu/nu); conditions: ip
Text: as §1, §2, §3
(§5) The compounds TH-2953 and TH-3040 were tested in a H460 model. The compounds were dosed as follows. A dose-dependent TH-2953 was given IP once, from 6.25 to 100 mg/kg, comparing with daily IP: 5 doses then 2 days off then 5 more doses starting at 100 mm^3 tumors on day 1 (10 animals per group average tumor volume). TH-3040 was administered IP once. The antitumor effects and the safety of administration are graphically illustrated below.

[7] = Example 4-F body weight change, H460 xenograft study; type: in vivo, female nude mice (nu/nu); conditions: ip
Description: as §3, §5

[8] = Pharmacokinetics of TH2953 in NU/NU mice with A549 and H460 xenografts; type: in vivo, Mouse/Nu-Foxn 1nu NU/NU mice; conditions: Nu-Foxn1nu NU/NU, mouse; for Kp: intraperitoneal, A549 tumor xenograft, 10 and 40 mg/kg ip; for AUC / Cmax / Tmax / half-life: plasma, ip
Description: The pharmacokinetics of TH2660, the active metabolite, following a single iintraperitoneal dose of TH2953 are shown below.
A549 and H460, following a single intraperitoneal dose of 10 and 40 mg/kg for A549 and 10 mg/kg for H460. TH2953 concentrations in the brain, liver and tumor were 55.0-73.8%, 297-541% and 2.08-8.34% of the concentrations in plasma in the A549 tumor xenograft. […] In the A549 xenograft, the preferential activation of TH2953 was more pronounced as the concentrations of TH2660 in the tumor were ˜5-7-fold greater than for TH2953, while they were only ˜13-15% in the liver.

[9] = 10 mg/kg, TH2953 10 mg/kg single ip, A549 xenograft
[10] = 10 mg/kg, TH2953 10 mg/kg single ip, H460 xenograft
[11] = 40 mg/kg, TH2953 40 mg/kg single ip, A549 xenograft

CN(C)C(=O)c1cccc(Oc2cc(COP(=O)(N3CC3)N3CC3)ccc2[N+](=O)[O-])c1 [Compound 2889]
IC50 (H460 cells): 3 nM
TGD 500 [1]: 62 days
TGI [1]: 90.1%
Max. BW loss % [2]: 1.1%
TGD 500 ([3]; 10 mpk): 13 days
TGD 1000 ([3]; 10 mpk): 15 days
inhibition in vivo at 10 mg/kg ([3]; Mus musculus, A-375, 10 mpk, read-out: TGI): 75.6%
Max. BW loss % [4]: 0%
AUC [5]: 598 ng·h/mL
Cmax [5]: 2480 ng/mL
Tmax [5]: 5 min
half-life [5]: 10.3 min

CC(OP(=O)(N1CC1)N1CC1)c1ccc([N+](=O)[O-])c(Oc2ccc(-c3ccccc3)cc2)c1 (centres unmarked) [Compound 2953]
IC50 (H460 cells): 5 nM
TGD 500 (A549 NSCLC xenograft): 64 days
TGI (A549 NSCLC xenograft): 93.8%
Max. BW loss % [6]: 1.6%
Lethal Tox ([6]; 10 animals per group): 0
TGD 500 (H460 NSCLC xenograft; 6.25 mpk, once): 16 days
TGD 1000 (H460 NSCLC xenograft; 6.25 mpk, once): 17 days
TGI (H460 NSCLC xenograft; 6.25 mpk, once): 72.2%
TGD 500 (H460 NSCLC xenograft; 12.5 mpk, once): 18 days
TGD 1000 (H460 NSCLC xenograft; 12.5 mpk, once): 21 days
TGI (H460 NSCLC xenograft; 12.5 mpk, once): 78.2%
TGD 500 (H460 NSCLC xenograft; 25 mpk, once): 18 days
TGD 1000 (H460 NSCLC xenograft; 25 mpk, once): 20 days
TGI (H460 NSCLC xenograft; 25 mpk, once): 86.1%
TGD 500 (H460 NSCLC xenograft; 40 mpk, QD × 5/wk × 2ks): 54 days
TGD 1000 (H460 NSCLC xenograft; 40 mpk, QD × 5/wk × 2ks): 65 days
TGI (H460 NSCLC xenograft; 40 mpk, QD × 5/wk × 2ks): 105.8%
TGD 500 (H460 NSCLC xenograft; 50 mpk, once): 19 days
TGD 1000 (H460 NSCLC xenograft; 50 mpk, once): 19 days
TGI (H460 NSCLC xenograft; 50 mpk, once): 90.4%
TGD 500 (H460 NSCLC xenograft; 100 mpk, once): 24 days
TGD 1000 (H460 NSCLC xenograft; 100 mpk, once): 27 days
TGI (H460 NSCLC xenograft; 100 mpk, once): 97.7%
Max. BW loss % ([7]; 6.25 mpk, once): 0.0%
Max. BW loss % ([7]; 12.5 mpk, once): 0.0%
Max. BW loss % ([7]; 25 mpk, once): 0.2%
Max. BW loss % ([7]; 40 mpk, QD × 5/wk × 2ks): 0.0%
Max. BW loss % ([7]; 50 mpk, once): 0.0%
Max. BW loss % ([7]; 100 mpk, once): 0.0%
Kp ([8]; brain (relative to plasma), read-out: concentration in the brain as % of the concentrations in plasma): 0.55 to 0.738
Kp ([8]; liver (relative to plasma), read-out: concentration in the liver as % of the concentrations in plasma): 2.97 to 5.41
AUC [8, 9]: 4430 ng·h/mL
Cmax [8, 9]: 149 ng/mL
Tmax [8, 9]: 30 min
half-life [8, 9]: 100 min
AUC [8, 10]: 7400 ng·h/mL
Cmax [8, 10]: 2330 ng/mL
Tmax [8, 10]: 15 min
half-life [8, 10]: 142 min
AUC [8, 11]: 39000 ng·h/mL
Cmax [8, 11]: 14800 ng/mL
Tmax [8, 11]: 30 min
half-life [8, 11]: 91.3 min
Kp ([8]; tumor (relative to plasma), read-out: concentration in the tumor as % of the concentrations in plasma): 0.0208 to 0.0834
